In patent publication US20250236611A1, “PYRAZOLE COMPOUNDS AND USES THEREOF” (ALCON INC., priority 2021, published 2025):

Assays:
Type in all cases: biochemical
Conditions in all cases: 10 nM JAK enzyme, 800 nM Abl peptide, room temperature 75 min
JAK1 = JAK1 (Homo sapiens, UniProt P23458); assay: JAK assay (KINASE-GLO luminescent kinase assay), JAK1
How it was run: (§1)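 The 2× mix gave 10 nM kinase, 800 nM Abl peptide and 2 µM DTT, and ATP was added as a 4× stock (2 µM), in HEPES pH 7.5 buffer. Compounds ran as an 11-point series, 100 µM–10 pM final in 2.5% DMSO, for 75 min at RT. Remaining ATP was read by luminescence against DMSO control, and 4-parameter IC50s were converted to Ki by Cheng-Prusoff.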

JAK2 = JAK2 (Homo sapiens, UniProt O60674); assay: JAK assay (KINASE-GLO luminescent kinase assay), JAK2
Chain of JAK2 (O60674 whole entry): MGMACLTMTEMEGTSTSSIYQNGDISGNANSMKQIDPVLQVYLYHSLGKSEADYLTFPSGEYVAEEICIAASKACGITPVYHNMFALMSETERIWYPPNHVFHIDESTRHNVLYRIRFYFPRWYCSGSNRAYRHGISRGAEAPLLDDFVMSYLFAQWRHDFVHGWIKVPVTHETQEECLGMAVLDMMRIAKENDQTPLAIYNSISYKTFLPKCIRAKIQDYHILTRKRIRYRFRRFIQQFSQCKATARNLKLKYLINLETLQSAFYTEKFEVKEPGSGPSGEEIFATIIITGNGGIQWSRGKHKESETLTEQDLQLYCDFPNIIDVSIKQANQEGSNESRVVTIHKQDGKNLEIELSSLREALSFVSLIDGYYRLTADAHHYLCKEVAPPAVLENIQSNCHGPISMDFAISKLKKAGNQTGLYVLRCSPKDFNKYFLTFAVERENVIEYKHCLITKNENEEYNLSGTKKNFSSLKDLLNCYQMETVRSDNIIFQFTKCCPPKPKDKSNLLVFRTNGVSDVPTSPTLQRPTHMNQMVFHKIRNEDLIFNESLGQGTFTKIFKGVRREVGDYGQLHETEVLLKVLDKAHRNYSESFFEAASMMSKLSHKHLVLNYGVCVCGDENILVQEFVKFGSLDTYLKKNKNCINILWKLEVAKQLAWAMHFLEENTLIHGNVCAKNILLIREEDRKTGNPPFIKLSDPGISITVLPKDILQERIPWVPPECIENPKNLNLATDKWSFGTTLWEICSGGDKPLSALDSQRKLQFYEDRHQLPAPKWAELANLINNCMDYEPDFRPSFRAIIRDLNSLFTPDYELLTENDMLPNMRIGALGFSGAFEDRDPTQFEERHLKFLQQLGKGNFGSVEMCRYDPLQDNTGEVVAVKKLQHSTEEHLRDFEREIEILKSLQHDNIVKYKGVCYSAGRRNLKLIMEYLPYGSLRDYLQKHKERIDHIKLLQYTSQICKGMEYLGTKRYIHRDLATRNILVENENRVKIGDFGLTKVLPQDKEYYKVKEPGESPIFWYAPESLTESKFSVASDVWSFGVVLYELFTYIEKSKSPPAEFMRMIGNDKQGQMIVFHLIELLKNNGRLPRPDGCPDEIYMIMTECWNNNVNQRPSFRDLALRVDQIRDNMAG
How it was run: as §1

JAK3 = target: T1, JAK3 (Homo sapiens, UniProt P52333); assay: JAK assay (KINASE-GLO luminescent kinase assay), JAK3
T1 sequence (P52333 1-1124): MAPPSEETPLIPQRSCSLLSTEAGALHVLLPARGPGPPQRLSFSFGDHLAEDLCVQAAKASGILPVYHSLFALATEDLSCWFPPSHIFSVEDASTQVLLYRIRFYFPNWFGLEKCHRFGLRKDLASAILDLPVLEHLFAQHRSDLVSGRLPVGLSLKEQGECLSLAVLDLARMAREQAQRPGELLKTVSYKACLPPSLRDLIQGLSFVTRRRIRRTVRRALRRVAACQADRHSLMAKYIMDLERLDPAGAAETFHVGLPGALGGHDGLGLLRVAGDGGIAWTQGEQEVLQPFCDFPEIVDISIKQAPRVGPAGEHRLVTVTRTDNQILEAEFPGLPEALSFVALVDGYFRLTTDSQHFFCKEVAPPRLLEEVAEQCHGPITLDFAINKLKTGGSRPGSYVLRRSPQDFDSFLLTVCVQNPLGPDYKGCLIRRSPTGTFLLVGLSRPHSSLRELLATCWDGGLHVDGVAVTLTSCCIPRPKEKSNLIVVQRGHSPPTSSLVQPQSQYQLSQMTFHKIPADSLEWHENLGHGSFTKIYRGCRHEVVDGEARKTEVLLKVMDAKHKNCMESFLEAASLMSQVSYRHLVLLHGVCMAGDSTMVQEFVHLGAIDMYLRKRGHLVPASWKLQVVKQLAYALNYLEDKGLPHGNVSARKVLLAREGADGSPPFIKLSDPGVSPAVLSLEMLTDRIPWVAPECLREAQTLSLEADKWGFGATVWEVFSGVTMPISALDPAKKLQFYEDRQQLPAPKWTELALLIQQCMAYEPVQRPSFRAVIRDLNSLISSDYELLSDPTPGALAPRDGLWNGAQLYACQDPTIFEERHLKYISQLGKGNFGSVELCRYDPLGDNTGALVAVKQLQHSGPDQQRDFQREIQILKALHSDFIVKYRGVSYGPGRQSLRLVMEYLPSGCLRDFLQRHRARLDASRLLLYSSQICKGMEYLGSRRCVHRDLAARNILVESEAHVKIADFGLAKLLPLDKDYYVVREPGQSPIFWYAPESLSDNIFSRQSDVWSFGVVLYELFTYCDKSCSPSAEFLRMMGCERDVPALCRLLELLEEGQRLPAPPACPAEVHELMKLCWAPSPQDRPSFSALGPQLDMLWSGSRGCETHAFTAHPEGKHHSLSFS
How it was run: as §1

TYK2 = TYK2 (Homo sapiens, UniProt P29597); assay: JAK assay (KINASE-GLO luminescent kinase assay), TYK2
Chain of TYK2 (P29597 whole entry): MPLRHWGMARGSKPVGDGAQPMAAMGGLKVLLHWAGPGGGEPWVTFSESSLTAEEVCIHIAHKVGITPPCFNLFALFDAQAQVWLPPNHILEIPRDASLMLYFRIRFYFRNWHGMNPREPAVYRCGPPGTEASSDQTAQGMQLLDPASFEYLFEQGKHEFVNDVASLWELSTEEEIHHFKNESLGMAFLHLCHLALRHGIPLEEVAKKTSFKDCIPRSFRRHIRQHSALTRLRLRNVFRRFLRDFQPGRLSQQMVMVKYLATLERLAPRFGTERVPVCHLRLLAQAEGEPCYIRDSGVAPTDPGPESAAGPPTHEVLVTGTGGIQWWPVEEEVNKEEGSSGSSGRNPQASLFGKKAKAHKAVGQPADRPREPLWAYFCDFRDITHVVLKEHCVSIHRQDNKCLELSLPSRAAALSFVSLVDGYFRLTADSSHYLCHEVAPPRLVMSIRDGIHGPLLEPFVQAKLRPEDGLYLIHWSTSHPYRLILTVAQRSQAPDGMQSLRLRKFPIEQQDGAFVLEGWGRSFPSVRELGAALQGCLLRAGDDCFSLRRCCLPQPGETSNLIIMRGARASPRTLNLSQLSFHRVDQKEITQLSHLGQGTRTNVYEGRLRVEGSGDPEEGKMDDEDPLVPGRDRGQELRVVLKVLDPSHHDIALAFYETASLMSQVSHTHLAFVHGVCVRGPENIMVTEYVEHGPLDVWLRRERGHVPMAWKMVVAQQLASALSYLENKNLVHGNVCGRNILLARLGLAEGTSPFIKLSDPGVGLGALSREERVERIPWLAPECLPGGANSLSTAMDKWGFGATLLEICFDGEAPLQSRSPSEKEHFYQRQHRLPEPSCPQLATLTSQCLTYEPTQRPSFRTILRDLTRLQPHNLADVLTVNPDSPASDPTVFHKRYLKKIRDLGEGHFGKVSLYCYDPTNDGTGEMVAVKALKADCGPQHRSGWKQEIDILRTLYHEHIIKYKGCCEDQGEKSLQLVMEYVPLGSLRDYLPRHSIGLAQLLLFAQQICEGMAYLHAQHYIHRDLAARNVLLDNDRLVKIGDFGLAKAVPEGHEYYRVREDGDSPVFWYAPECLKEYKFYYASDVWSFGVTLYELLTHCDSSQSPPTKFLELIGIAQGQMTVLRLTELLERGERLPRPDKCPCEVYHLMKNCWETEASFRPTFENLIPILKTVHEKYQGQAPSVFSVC

Chain of JAK1 (P23458 whole entry): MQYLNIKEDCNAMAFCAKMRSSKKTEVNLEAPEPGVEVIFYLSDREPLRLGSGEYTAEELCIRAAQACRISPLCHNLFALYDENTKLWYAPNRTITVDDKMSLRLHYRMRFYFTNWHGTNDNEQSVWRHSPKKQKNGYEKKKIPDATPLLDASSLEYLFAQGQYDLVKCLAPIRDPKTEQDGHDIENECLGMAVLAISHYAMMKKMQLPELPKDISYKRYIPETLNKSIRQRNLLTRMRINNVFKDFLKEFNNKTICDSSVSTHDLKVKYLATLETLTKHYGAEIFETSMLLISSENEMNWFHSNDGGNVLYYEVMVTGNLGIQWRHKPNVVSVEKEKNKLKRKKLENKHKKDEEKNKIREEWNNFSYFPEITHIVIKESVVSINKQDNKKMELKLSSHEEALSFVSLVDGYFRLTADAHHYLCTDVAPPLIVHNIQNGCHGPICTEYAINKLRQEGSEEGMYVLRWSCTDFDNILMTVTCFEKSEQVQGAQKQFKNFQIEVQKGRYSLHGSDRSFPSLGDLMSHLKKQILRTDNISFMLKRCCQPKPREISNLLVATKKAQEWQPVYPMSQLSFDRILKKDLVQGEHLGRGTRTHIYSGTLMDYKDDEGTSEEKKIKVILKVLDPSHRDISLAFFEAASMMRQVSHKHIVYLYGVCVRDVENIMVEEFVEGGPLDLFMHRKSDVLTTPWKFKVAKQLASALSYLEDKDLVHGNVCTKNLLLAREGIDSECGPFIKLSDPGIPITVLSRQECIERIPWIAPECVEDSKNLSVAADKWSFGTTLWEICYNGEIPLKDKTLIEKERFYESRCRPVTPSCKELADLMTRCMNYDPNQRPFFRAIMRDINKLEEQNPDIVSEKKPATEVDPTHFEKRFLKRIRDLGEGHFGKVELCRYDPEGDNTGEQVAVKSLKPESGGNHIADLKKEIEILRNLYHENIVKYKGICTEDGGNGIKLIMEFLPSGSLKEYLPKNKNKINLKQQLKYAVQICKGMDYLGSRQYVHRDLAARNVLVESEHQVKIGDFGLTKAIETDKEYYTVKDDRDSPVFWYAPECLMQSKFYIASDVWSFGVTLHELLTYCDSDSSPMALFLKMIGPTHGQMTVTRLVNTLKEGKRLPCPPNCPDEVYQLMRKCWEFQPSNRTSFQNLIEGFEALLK

SMILES | IC50 (JAK1) [nM] | IC50 (JAK2) [nM] | IC50 (JAK3) [nM] | IC50 (TYK2) [nM]
COc1cnc(Nc2cc(COC(=O)c3ccccc3)ns2)nc1-c1cnn(CC2(CF)CC2)c1 [COC1═C(N═C(NC2═CC(═NS2)COC] | < 100 | < 10 | < 100 | < 100
COc1cnc(Nc2ccc(C3(O)COC3)cc2)nc1-c1cnn(CC2(CF)CC2)c1 [COC1═C(N═C(NC2═CC═C(C═C2)C3] | < 1000 | < 10 | < 100 | < 100
COc1cnc(Nc2ccc(N3CCN(C)CC3)cc2)nc1-c1cnn(CC2(Cl)CC2)c1 [COC1═C(N═C(NC2═CC═C] | < 100 | < 10 | < 10 | < 100
COc1ccc(Nc2ncc(C)c(-c3cnn(CC4(CF)CC4)c3)n2)cn1 [COC1═CC═C(NC2═NC(═C] | < 1000 | < 10 | < 100 | < 100
COc1cc(Nc2ncc(C)c(-c3cnn(CC4(CF)CC4)c3)n2)sn1 [COC1═NSC(═C1)NC2═NC(═C] | < 100 | < 10 | < 100 | < 10
COC(=O)c1cc(Nc2ncc(C)c(-c3cnn(CCC#N)c3)n2)ccc1N1CCOCC1 [COC(═O)C1═C(C═CC(═C1)NC2═NC(═C] | < 10 | < 10 | < 10 | < 10
COC(=O)c1cc(Nc2ncc(C)c(-c3cnn(CCC#N)c3)n2)ccc1N1CCOCC1 [COC(═O)C1═CC(═CC═C1)NC2═NC(═C] | < 100 | < 10 | < 10 | < 100
COC(=O)c1cccc(Nc2ncc(Cl)c(-c3cnn(CCC#N)c3)n2)c1 [COC(═O)C1═CC═CC(═C1)NC2═NC] | < 100 | < 10 | < 10 | < 100
COC(=O)c1ccc(Nc2ncc(Cl)c(-c3cnn(CC4(C#N)CC4)c3)n2)cn1 [COC(═O)C1═NC═C(NC2═NC(═C] | < 1000 | < 10 | < 100 | < 100
COCc1cc(Nc2ncc(C)c(-c3cnn(CC4(CF)CC4)c3)n2)sn1 [COCC1═NSC(═C1)NC2═NC(═C] | < 1000 | < 100 | < 1000 | < 1000
COCCOc1ccc(Nc2ncc(C)c(-c3cnn(CC4(CF)CC4)c3)n2)cc1 [COCCOC1═CC═C(NC2═NC(═C] | < 100 | < 10 | < 100 | < 100
COCCOCc1cc(Nc2ncc(C)c(-c3cnn(CC4(CF)CC4)c3)n2)sn1 [COCCOCC1═NSC(═C1)NC2═NC(═C] | < 1000 | < 1000 | < 1000 | < 1000
Cc1cnc(Nc2ccc(CNC(=O)[C@H](C)N)cc2)nc1-c1cnn(CC2(CF)CC2)c1 [C[C@H](N)C(═O)NCC1═CC═C(NC2═NC] | < 100 | < 10 | < 100 | < 100
Cc1cnc(Nc2ccc(CNC(=O)[C@H](C)NC(=O)OC(C)(C)C)cc2)nc1-c1cnn(CC2(CF)CC2)c1 [C[C@H](NC(═O)OC(C)(C)C)C] | < 100 | < 10 | < 100 | < 100
Cc1cnc(Nc2cn(C)nn2)nc1-c1cnn(CC2(CF)CC2)c1 [C[N]1C═C(NC2═NC(═C(C)C═N2)C3═C[N]] | < 1000 | < 100 | < 1000 | < 1000
Cn1cc(Nc2ncc(Cl)c(-c3cnn(CCC4CC4)c3)n2)cn1 [C[N]1C═C(NC2═NC(═C] | < 100 | < 10 | < 10 | < 100
Cn1ccc(Nc2ncc(Cl)c(-c3cnn(CCC#N)c3)n2)n1 [C[N]1C═CC(═N1)NC2═NC(═C] | < 1000 | < 10 | < 1000 | < 1000
CS(=O)(=O)N(c1ncc(Cl)c(-c2cnn(CCC#N)c2)n1)S(C)(=O)=O [C[S](═O)(═O)N(C1═NC(═C] | > 50000 | < 100000 | > 50000 | > 50000
CS(=O)(=O)N(c1ncc(Cl)c(-c2cnn(CCC#N)c2)n1)S(C)(=O)=O [C[S](═O)(═O)NC1═NC(═C] | < 100000 | < 100000 | < 100000 | < 100000

SMILES | IC50 (JAK1) [nM] | IC50 (JAK2) [nM] | IC50 (JAK3) [nM] | IC50 (TYK2) [nM]
Clc1cnc(Nc2cccc(CN3CCC3)c2)nc1 [ClC1═C(N═C(NC2═CC(═CC═C2)CN3CCC3)N═C1)] | < 100 | < 10 | < 10 | < 10
N#CC1(Cn2cc(-c3nc(Nc4ccns4)ncc3Cl)cn2)CCC1 [ClC1═C(N═C(NC2═CC═NS2)N═C1)C3═C[N]] | < 100 | < 10 | < 100 | < 100
N#CCCn1cc(-c2nc(Nc3ccsc3)ncc2Cl)cn1 [ClC1═C(N═C(NC2═CSC═C2)N═C1)C3═C[N]] | < 100000 | < 100000 | < 100000 | < 100000
Clc1cnc(NC23CC(C2)C3)nc1-c1cnn(Cc2cccs2)c1 [ClC1═C(N═C(NC23CC(C2)C3)N═C1)C4═C[N]] | > 50000 | > 50000 | < 100000 | > 50000
N#CC1(Cn2cc(-c3nc(Nc4cnc5ccnn5c4)ncc3Cl)cn2)CCC1 [ClC1═C(N═C] | < 100000 | < 100 | < 1000 | < 1000
N#CCCn1cc(-c2nc(NC3CCNCC3(F)F)ncc2Cl)cn1 (stereo not shown) [FC1(F)CNCCC1NC2═NC(═C] | > 50000 | < 100000 | > 50000 | > 50000
N#CCCn1cc(-c2nc(Nc3cccc(CN4CC(F)C4)c3)ncc2Cl)cn1 [FC1CN(C1)CC2═CC═CC(═C2)NC3═NC(═C] | < 100 | < 10 | < 10 | < 10
N#CCCn1cc(-c2nc(Nc3ccc(N4CCOCC4)c(F)c3)ncc2Cl)cn1 [FC1═CC(═CC═C1N2CCOCC2)NC3═NC(═C] | < 10 | < 10 | < 10 | < 10
N#CCCn1cc(-c2nc(Nc3ccc(N4CCOCC4)cc3F)ncc2Cl)cn1 [FC1═CC(═CC═C1NC2═NC(═C] | < 1000 | < 10 | < 100 | < 100
N#CCCn1cc(-c2nc(Nc3cc(C(F)(F)F)no3)ncc2Cl)cn1 [FC(F)(F)C1═NOC(═C1)NC2═NC(═C] | > 50000 | < 1000 | > 50000 | > 50000
FC(F)C1(Cn2cc(-c3nc(Nc4ccc5cnoc5c4)ncc3Cl)cn2)COC1 [FC(F)C1(COC1)C[N]2C═C(C═N2)C3═C] | < 1000 | < 10 | < 100 | < 1000
N#CCC1(Cn2cc(-c3ccnc(Nc4ccns4)n3)cn2)CC1 [N#CCC1(CC1)C[N]2C═C(C═N2)C3═CC═NC] | < 100 | < 10 | < 100 | < 100
N#CCC1(Cn2cc(-c3nc(Nc4ccns4)ncc3C3CC3)cn2)CC1 [N#CCC1(CC1)C[N]2C═C(C═N2)C3═C] | < 100 | < 10 | < 100 | < 100
NC(=O)CCn1cc(-c2nc(NC3CCNCC3(F)F)ncc2Cl)cn1 (stereo not shown) [NC(═O)CC[N]1C═C(C═N1)C2═C] | > 50000 | < 100000 | > 50000 | > 50000
NCc1cccc(Nc2ncc(Cl)c(-c3cnn(CC4(CF)CC4)c3)n2)c1 [NCC1═CC═CC(═C1)NC2═NC(═C] | < 100 | < 10 | < 10 | < 100
N#CCCn1cc(-c2nc(Nc3ccc(C(=O)O)cc3)ncc2Cl)cn1 [OC(═O)C1═CC═C(NC2═NC(═C] | < 10 | < 10 | < 100 | < 10
N#CCCn1cc(-c2nc(Nc3cccc(C(=O)O)c3)ncc2Cl)cn1 [OC(═O)C1═CC═CC(═C1)NC2═NC] | < 1000 | < 10 | < 1000 | < 1000
N#CC1(Cn2cc(-c3nc(Nc4ccc(C(=O)O)nc4)ncc3Cl)cn2)CC1 [OC(═O)C1═NC═C(NC2═NC(═C] | < 100 | < 10 | < 1000 | < 100
